Experimental data taken from patent US6410533B1, “Antibacterial compounds” (Genzyme Corporation, priority 2000, dated 2002).
In brackets after ≈: the same amount, converted by molar mass. Where two headings read alike, the source gives them in different places.

Assays:
[1] = system: Staphylococcus aureus bacteria (ATCC 9604 SV); test: IC50 determination, growth inhibition by turbidity at 550 nm; type: cell-based; details: Staphylococcus aureus ATCC 9604 SV, turbidity at 550 nm after 3-5 h at 37° C.
Procedure: (§1) Minimal inhibitory concentrations (MICs) for Staphylococcus aureus bacteria (ATCC 9604 SV) were determined by broth microdilution methodology following National Committee for Clinical Laboratory Standards. In the MIC determinations, the compounds were incorporated into Mueller-Hinton broth (Becton Dickinson Microbiology systems, Cockeyville, Md.) at a series of concentrations. After the test organism was grown overnight in TB broth, the broths were adjusted to the turbidity equivalent to 0.05 McFarland standard. The suspensions were diluted twenty-fold into the broth containing the compounds. […] In the IC50 determination, the method was modified to allow the rapid growth of the organisms. The inoculum suspensions were adjusted to 0.1 McFarland standard and then diluted two-fold into the wells containing TB broth and the compounds. After three to five hours incubation at 37° C., the turbidity was measured at 550 nm and inhibitory activity was defined as the concentration of antimicrobial agent that inhibits 50% growth of the organism in the microdilution wells.

[2] = system: methicillin-resistant Staphylococcus aureus (ATCC 33591); test: In vivo mouse intraperitoneal infection, mortality and % survivors over 7 days; details: MRSA ATCC 33591 i.p., ICR mice; for In Vivo, single dose (% of mice rescued): single dose 1 h post inoculation; for In Vivo, double dose (% of mice rescued): 1 and 5 h post inoculation
Procedure: Ten male ICR mice weighing 20 grams were inoculated intraperitoneally with an LD90-100 dose (2-3×10^7 CFU/mouse) of methicillin-resistant Staphylococcus aureus (ATCC 33591) in brain-heart infusion broth containing 5% mucin. Compounds were suspended in a vehicle containing 1% cremophore EL (Sigma) in normal saline and were administered subcutaneously in a volume of 0.4 ml per mouse either 1 hour following bacterial inoculation or 1 and 5 hours post inoculation. Animals receiving two doses of drug were injected subcutaneously in the hindquarter one hour post-innoculation and in the neck area, 5 hours post-innoculation. Deaths occurring during the subsequent 7 days are recorded. Mortality and % survivor endpoints are calculated.

[3] = system: Staphylococcus aureus bacteria (ATCC 9604 SV); test: Minimal inhibitory concentration (MIC), broth microdilution; type: cell-based; details: 24 h at 37° C.
Procedure: as §1

[4] = Staphylococcus aureus ATCC 9604 SV

Structure (SMILES) | IC50 [1] | In Vivo, double dose (% of mice rescued) ([2]; 2 × 2 mg/kg s.c.) | In Vivo, double dose (% of mice rescued) ([2]; 2 × 20 mg/kg s.c.) | MIC [3, 4] | further results
O=C(Nc1nc(-c2ccc(Cl)cc2)cs1)Nc1c(Cl)cc(Cl)cc1Cl [Compound 171] | 927 nM | – | – | – | –
O=C(Nc1cc(C(F)(F)F)cc(C(F)(F)F)c1)Nc1nc(-c2ccc(Cl)c(Cl)c2)cs1 [Compound 150] | 410 nM | – | – | – | –
O=C(Nc1ccc(F)c(C(F)(F)F)c1)Nc1nc(-c2ccc(Br)cc2)cs1 [Compound 166] | 205 nM | – | – | – | –
CC(C)(C)c1csc(NC(=O)Nc2cc(C(F)(F)F)cc(C(F)(F)F)c2)n1 [Compound 124] | 513 nM | – | – | – | –
Cc1c(-c2csc(NC(=O)Nc3cc(C(F)(F)F)cc(C(F)(F)F)c3)n2)sc2ccc(Cl)cc12 [Compound 157] | 332 nM | – | – | – | –
O=C(Nc1cc(C(F)(F)F)cc(C(F)(F)F)c1)Nc1nc(-c2ccc(Cl)cc2Cl)cs1 [Compound 148] | 400 nM | – | – | – | –
O=C(Nc1cc(C(F)(F)F)cc(C(F)(F)F)c1)Nc1nc(-c2ccc(Br)cc2)cs1 [Compound 136] | 133 nM | – | – | – | –
O=C(Nc1cc(C(F)(F)F)cc(C(F)(F)F)c1)Nc1cc(-c2cccc(C(F)(F)F)c2)nn1-c1ccc(C(F)(F)F)cc1 [Compound 80] | 539 nM | – | – | – | –
COc1ccccc1-c1csc(NC(=O)Nc2cc(C(F)(F)F)cc(C(F)(F)F)c2)n1 [Compound 133] | 4630 nM | – | – | – | –
COc1ccc(-c2cc(NC(=O)Nc3cc(C(F)(F)F)cc(C(F)(F)F)c3)n(-c3ccc(C(F)(F)F)cc3)n2)cc1 [Compound 82] | 149 nM | – | – | – | –
O=C(Nc1cc(Cl)cc(Cl)c1)Nc1nc(-c2ccc(Cl)cc2)cs1 [Compound 163] | 180 nM | – | – | – | –
O=C(Nc1cc(C(F)(F)F)cc(C(F)(F)F)c1)Nc1nc(-c2ccc(-c3ccccc3)cc2)cs1 [Compound 147] | 799 nM | – | – | – | –
O=C(Nc1cc(C(F)(F)F)cc(C(F)(F)F)c1)Nc1cc(-c2cccc(Cl)c2)nn1-c1ccc(C(F)(F)F)cc1 [Compound 78] | 206 nM | – | – | – | –
Cc1ccc(-c2csc(NC(=O)Nc3cc(C(F)(F)F)cc(C(F)(F)F)c3)n2)cc1 [Compound 140] | 653 nM | – | – | – | –
Cc1sc(NC(=O)Nc2cc(C(F)(F)F)cc(C(F)(F)F)c2)nc1-c1ccc(Br)cc1 [Compound 137] | 838 nM | – | – | – | –
CC(C)(C)c1cc(NC(=O)Nc2cc(Cl)cc(Cl)c2)n(-c2ccc(C(F)(F)F)cc2)n1 [Compound 73] | 83 nM | – | – | – | In Vivo, single dose (% of mice rescued) ([2]; 2 mg/kg s.c.): 0% @ 2 mg/kg; In Vivo, single dose (% of mice rescued) ([2]; 20 mg/kg s.c.): 0% @ 20 mg/kg
CC(=O)C=C1C(=O)N(c2cc(Cl)cc(Cl)c2)N=C1c1ccccc1 [Compound 25] | – | 0% @ 2 × 2 mg/kg | 0% @ 2 × 20 mg/kg | 3.12 µg/mL (≈ 8.69 µM) | –
O=C(O)C=C1C(=O)N(c2cc(Cl)cc(Cl)c2)N=C1c1ccccc1 [Compound 46] | – | 0% @ 2 × 2 mg/kg | 0% @ 2 × 20 mg/kg | 1.50 µg/mL (≈ 4.15 µM) | –
O=C(Nc1cc(C(F)(F)F)cc(C(F)(F)F)c1)Nc1cc(-c2ccc(OC(F)(F)F)cc2)nn1-c1ccc(C(F)(F)F)cc1 [Compound 81] | 159 nM | – | – | – | –
O=C(O)c1ccc(C=C2C(=O)N(c3cc(Cl)cc(Cl)c3)N=C2c2ccccc2)cc1 [Compound 52] | – | 0% @ 2 × 2 mg/kg | 0% @ 2 × 20 mg/kg | 0.656 µg/mL (≈ 1.5 µM) | –
O=C1C(=Cc2cccnc2)C(c2ccccc2)=NN1c1cc(Cl)cc(Cl)c1 [Compound 30] | – | 0% @ 2 × 2 mg/kg | 0% @ 2 × 20 mg/kg | 1.20 µg/mL (≈ 3.04 µM) | –
CCCC1=NN(c2cc(Cl)cc(Cl)c2)C(=O)C1 [Compound 10] | – | 0% @ 2 × 2 mg/kg | 0% @ 2 × 20 mg/kg | 0.813 µg/mL (≈ 3 µM) | –
O=C(NCc1cccc(Cl)c1)Nc1nc(C2CCCC2)cs1 [Compound 173] | – | 25% @ 2 × 2 mg/kg | 25% @ 2 × 20 mg/kg | 8.40 µg/mL (≈ 25 µM) | –
O=C(Nc1cc(C(F)(F)F)cc(C(F)(F)F)c1)Nc1nc(-c2ccc3ccccc3c2)cs1 [Compound 153] | 1450 nM | – | – | – | –
CCC1=NN(c2cc(Cl)cc(Cl)c2)C(=O)C1=Cc1cccc(C(=O)O)c1 [Compound 58] | – | 25% @ 2 × 2 mg/kg | 12.5% @ 2 × 20 mg/kg | 6.25 µg/mL (≈ 16.1 µM) | –

Structure (SMILES) | IC50 [1] | In Vivo, double dose (% of mice rescued) ([2]; 2 × 2 mg/kg s.c.) | In Vivo, double dose (% of mice rescued) ([2]; 2 × 20 mg/kg s.c.) | MIC [3, 4] | further results
CC(C)=C1C(=O)N(c2cc(Cl)cc(Cl)c2)N=C1c1ccccc1 [Compound 22] | – | 0% @ 2 × 2 mg/kg | 25% @ 2 × 20 mg/kg | 0.518 µg/mL (≈ 1.5 µM) | –
O=C1Nc2ccccc2C1=C1C(=O)N(c2cc(Cl)cc(Cl)c2)N=C1c1ccccc1 [Compound 42] | – | 0% @ 2 × 2 mg/kg | 0% @ 2 × 20 mg/kg | 1.20 µg/mL (≈ 2.76 µM) | –
COc1ccc(-c2csc(NC(=O)Nc3cc(C(F)(F)F)cc(C(F)(F)F)c3)n2)cc1 [Compound 141] | 1360 nM | – | – | – | –
O=C(Nc1cc(C(F)(F)F)cc(C(F)(F)F)c1)Nc1cc(-c2ccc(Cl)cc2)nn1-c1ccc(C(F)(F)F)cc1 [Compound 79] | 126 nM | – | – | – | –
O=C(Nc1cc(Cl)cc(Cl)c1)Nc1nc(-c2ccc(F)c(F)c2)cs1 [Compound 164] | 2650 nM | – | – | – | –
O=C1C(=NO)C(c2ccccc2)=NN1c1cc(Cl)cc(Cl)c1 [Compound 23, 2-(3,5-Dichloro-phenyl)-5-phenyl-2H-pyrazole-3,4-dione-4-oxime] | – | 0% @ 2 × 2 mg/kg | 25% @ 2 × 20 mg/kg | – | MIC ([3]; ATCC9604, Staphylococcus aureus ATCC 9604 SV, read-out: MIC): 8.35 µg/mL (≈ 25 µM)
O=C1C(CCc2ccccn2)C(c2ccccc2)=NN1c1cc(Cl)cc(Cl)c1 (centres unmarked) [Compound 66] | – | 25% @ 2 × 2 mg/kg | 0% @ 2 × 20 mg/kg | 5.13 µg/mL (≈ 12.5 µM) | –
O=C(Nc1cc(C(F)(F)F)cc(C(F)(F)F)c1)Nc1nc(-c2ccc(Cl)cc2)cs1 [Compound 138, 1-(3,5-Bis-trifluoromethyl-phenyl)-3-[4-(4-chloro-phenyl)-thiazol-2-yl]-urea] | – | – | – | – | IC50 ([1]; ATCC9604): 100 nM
O=C(Nc1cc(C(F)(F)F)cc(C(F)(F)F)c1)Nc1c(-c2ccccc2)cnn1-c1ccc(C(F)(F)F)cc1 [Compound 71] | 330 nM | – | – | – | –
O=C(Nc1cc(C(F)(F)F)cc(C(F)(F)F)c1)Nc1nc(-c2ccc(F)cc2F)cs1 [Compound 149] | 879 nM | – | – | – | –
O=C(O)c1cccc(C=C2C(=O)N(c3cc(Cl)cc(Cl)c3)N=C2c2ccccc2)c1 [Compound 51] | – | 25% @ 2 × 2 mg/kg | 25% @ 2 × 20 mg/kg | 1.31 µg/mL (≈ 3 µM) | –
N#Cc1ccc(-c2csc(NC(=O)Nc3cc(C(F)(F)F)cc(C(F)(F)F)c3)n2)cc1 [Compound 144] | 337 nM | – | – | – | –
O=C(Nc1ccc(F)c(C(F)(F)F)c1)Nc1nc(-c2ccc(Cl)cc2)cs1 [Compound 167] | 175 nM | – | – | – | –
O=C(Nc1nc(-c2ccc(Cl)cc2)cs1)Nc1ccc(Br)cc1C(F)(F)F [Compound 162] | 4710 nM | – | – | – | –
CCC1=NN(c2cc(Cl)cc(Cl)c2)C(=O)C1=Cc1ccco1 [Compound 55] | – | 0% @ 2 × 2 mg/kg | 25% @ 2 × 20 mg/kg | 1.50 µg/mL (≈ 4.48 µM) | –
O=C(Nc1cc(C(F)(F)F)cc(C(F)(F)F)c1)Nc1nc(-c2ccccc2)cs1 [Compound 132] | 970 nM | – | – | – | –
CCC1=NN(c2cc(Cl)cc(Cl)c2)C(=O)C1=Cc1ccc(C(=O)O)cc1 [Compound 59] | – | 12.5% @ 2 × 2 mg/kg | 12.5% @ 2 × 20 mg/kg | 0.400 µg/mL (≈ 1.03 µM) | –
CCC1=NN(c2cc(Cl)cc(Cl)c2)C(=O)C1 [Compound 17] | – | 12.5% @ 2 × 2 mg/kg | 25% @ 2 × 20 mg/kg | 1.54 µg/mL (≈ 5.99 µM) | –
COc1cccc(-c2csc(NC(=O)Nc3cc(C(F)(F)F)cc(C(F)(F)F)c3)n2)c1 [Compound 134] | 4520 nM | – | – | – | –
O=C(Nc1cccc(Br)c1)Nc1nc(-c2ccc(Br)cc2)cs1 [Compound 159] | 543 nM | – | – | – | –
O=C(Nc1cc(C(F)(F)F)cc(C(F)(F)F)c1)Nc1cc(-c2ccccn2)nn1-c1ccc(C(F)(F)F)cc1 [Compound 85] | 359 nM | – | – | – | –
O=C1CC(c2ccc(F)cc2)=NN1c1cc(Cl)cc(Cl)c1 [Compound 16] | – | 0% @ 2 × 2 mg/kg | 25% @ 2 × 20 mg/kg | 0.485 µg/mL (≈ 1.5 µM) | –
Cc1cc(-c2cc(NC(=O)Nc3cc(Cl)cc(Cl)c3)n(-c3ccc(Br)cc3)n2)no1 [Compound 114] | 1630 nM | – | – | – | –
O=C(Nc1cc(C(F)(F)F)cc(C(F)(F)F)c1)Nc1nc(CCCO)cs1 [Compound 125] | 2070 nM | – | – | – | –
